{
  "source": "patent US9040563B2",
  "about": "“Dual inhibitors of farnesyltransferase and geranylgeranyltransferase I” (H. Lee Moffitt Cancer Center and Research Institute, Inc., priority 2010, dated 2015)",
  "key": {"hFTase": {"target": "hFTase (Homo sapiens, UniProt P49354+P49356)", "assay": "In vitro hFTase inhibition: incorporation of [3H]FPP into recombinant H-Ras-CVLS", "assay_type": "biochemical"}, "GGTase-I": {"target": "GGTase-I (Homo sapiens, UniProt P49354+P53609)", "assay": "In vitro GGTase-I inhibition: incorporation of [3H]GGPP into recombinant H-Ras-CVLL", "assay_type": "biochemical", "conditions": "average of n = 3 unless stated, errors are standard deviations, read-out: GGTase-1 IC50"}, "farnesylation of H-Ras": {"test_system": "farnesylation of H-Ras", "assay": "Whole cell inhibition of H-Ras processing (farnesylation), immunoblot, oncogenic H-Ras-transformed NIH3T3 cells", "assay_type": "cell-based, mouse", "procedure": "(§1) In vitro inhibition assays for FTase and GGTase-I were conducted by measuring the incorporation of [^3H]FPP and [^3H]GGPP into recombinant H-Ras-CVLS and H-Ras-CVLL, respectively, as previously described (Vogt, et al., Protein geranylgeranylation, not farnesylation, is required for the G1 to S phase transition in mouse fibroblasts. Oncogene, 1996, 13, 1991-1999). The in vivo inhibition of farnesylation and geranylgeranylation was determined based on the level of inhibition by synthetic compounds of H-Ras and Rap1A processing, respectively (Sun, et al., Both farnesyltransferase and geranylgeranyltransferase I inhibitors are required for inhibition of oncogenic K-Ras prenylation but each alone is sufficient to suppress human tumor growth in nude mouse xenografts. Oncogene, 1998, 16, 1467-1473). […] The separated proteins were transferred to nitrocellulose and immunoblotted using an anti-Ras antibody (Y13-258) or an anti-Rap1A antibody (SantaCruz Biotechnology, Santa Cruz, Calif.), respectively. Antibody reactions were visualized using either peroxidase-conjugated goat anti-rat IgG or goat anti-rabbit IgG (Jackson ImmunoResearch, West Grove, Pa.) and an enhanced chemiluminescence detection system.\n(§2) Briefly, in vitro inhibition assays for hFTase and GGTase-I were carried out by measuring the incorporation of [^3H]FPP and [^3H]GGPP into recombinant H-Ras-CVLS and H-Ras-CVLL, respectively, as described previously (Vogt et al., Protein geranylgeranylation, not farnesylation, is required for G1 to S phase transition in mouse fibroblasts. Oncogene. 1996; 13:1991-1999). Whole cell inhibition of farnesylation and geranylgeranylation were determined based on the level of inhibition by synthetic compounds of H-Ras and Rap1A processing, respectively (Sun, et al., Both farnesyltransferase and geranylgeranyltransferase I inhibitors are required for inhibition of oncogenic K-Ras prenylation but each alone is sufficient to suppress human tumor growth in nude mouse xenografts. Oncogene. 1998; 16:1467-1473)."}, "[1]": {"test_system": "geranylgeranylation of Rap1A", "assay": "Whole cell inhibition of Rap1A processing (geranylgeranylation), immunoblot, oncogenic H-Ras-transformed NIH3T3 cells", "assay_type": "cell-based, mouse", "conditions": "Mus musculus; whole cells, oncogenic H-Ras-transformed NIH3T3; n = 3 unless stated; read-out: Rap1A processing IC50", "procedure": "as §1, §2"}, "HDJ-2 farnesylation": {"test_system": "HDJ-2 farnesylation", "assay": "Western blot of HDJ-2 farnesylation/processing (gel shift) in treated cells", "assay_type": "cell-based", "conditions": "MiaPaca, MDA-MB-468 and MDA-MB-231 human cancer cells; FIG. 13", "procedure": "The ability of FGTI-2734 to inhibit HDJ-2 farnesylation and Rap-1A geranylgeranylation in human cancer cells was determined next. To this end, the MiaPaca pancreatic cancer cell line and 2 breast cancer cell lines (MDA-MB-468 and MDA-MB-231) were treated with various concentration of the dual inhibitor FGTI-2734, the GGT-1 inhibitor GGTI-2418 or the FT inhibitor FTI-2153 and processed for Western blotting.\n(§3) Testing has shown that the dual farnesyltransferase and geranygeranyltransferase-I inhibitors are effective on pancreatic tumors (90% of all cases), colonic tumors (30% of all cases), lung tumors (30% of all cases), and breast tumors (10% of all cases). NIH-3T3 cells that overexpress oncogenic mutant K-Ras, seen in FIG. 14, and MDA-MB-231 breast cancer cells with a naturally occurring K-Ras mutation, seen in FIG. 15, were treated with indicated concentrations of FGTI-2734, GGTI-2417 or FTI-2153. FGTI-2734 but not FTI-2153 or GGTI-2417 inhibited K-Ras prenylation. As expected, GGTI-2417 inhibited the processing of Rap1 but not HDJ-2 whereas FTI-2153 inhibited the processing of HDJ-2 but not Rap1.\nMammalian target of rapamycin (mTOR) is a serine/threonine phosphatidylinositol 3-kinase-related kinase responsible for cell growth, proliferation, cell survival, protein synthesis, and transcription. […]"}, "K-Ras prenylation": {"test_system": "K-Ras prenylation", "assay": "Western blot of oncogenic K-Ras processing/prenylation", "assay_type": "cell-based", "conditions": "NIH-3T3 overexpressing oncogenic mutant K-Ras (FIG. 14) and MDA-MB-231 (FIG. 15)", "procedure": "as §3\nMammalian target of rapamycin (mTOR) is a serine/threonine phosphatidylinositol 3-kinase-related kinase responsible for cell growth, proliferation, cell survival, protein synthesis, and transcription. Alteration of the mTOR pathway, either through activation of oncogenes or inactivation of tumor suppressors, disrupts a signaling equilibrium and causes malignant transformation. Studies have shown that phosphorylated S6 (pS6) is related to mTOR pathway alterations, and is useful in determining PI3K-based cancer therapies (Aziz, et al. Phosphatidylinositol-3-Kinase as a Therapeutic Target in Melanoma. Clin Cancer Res. 2009, 15; 3029-3036). […]"}},
  "note": "Where two headings read alike, the source gives them in different places.",
  "data": [
    {"smiles": "Cn1cncc1CN(CCN(CC1CCCCC1)S(=O)(=O)c1ccccn1)c1ccc(C#N)cc1F", "note": "[21b, N-(2-((4-cyano-2-fluorophenyl)((1-methyl-1H-imidazol-5-yl)methyl)amino)ethyl)-N-(cyclohexylmethyl)pyridine-2-sulfonamide]", "values": [
      {"measurement": "selectivity (ratio of GGTase-I to FTase IC50s)", "setting": "hFTase; GGTase-I IC50 / hFTase IC50", "value": 2.1},
      {"measurement": "IC50", "setting": "hFTase; in vitro, average of three independent assays (n = 3) unless stated, errors are standard deviations", "value": "250 ± 190", "unit": "nM"},
      {"measurement": "IC50", "setting": "GGTase-I", "value": "520 ± 90", "unit": "nM"},
      {"measurement": "IC50", "setting": "farnesylation of H-Ras; Mus musculus, NIH3T3, whole cells, oncogenic H-Ras-transformed NIH3T3, n = 3 unless stated, read-out: H-Ras processing IC50", "value": "88.7 ± 25.8", "unit": "nM"},
      {"measurement": "IC50", "setting": "farnesylation of H-Ras; whole cells, NIH 3T3, values in nM, listed as FGTI-2734, read-out: H-Ras processing IC50 (whole cell)", "value": "89 ± 26", "unit": "nM"},
      {"measurement": "IC50", "setting": "[1]", "value": "2700 ± 1500", "unit": "nM"},
      {"measurement": "inhibition of HDJ-2 farnesylation", "setting": "HDJ-2 farnesylation", "value": "inhibited"},
      {"measurement": "inhibition of K-Ras prenylation", "setting": "K-Ras prenylation", "value": "inhibited"}
    ]}
  ]
}
